Consider five molecules from patent US20160362416A1, “ANTIVIRAL COMPOUNDS” (Gilead Sciences, Inc., priority 2012, published 2016).

In data set [1] the test system is Q30E in genotype 1a NS5A replicon. Kind of data set: Resistance mutant replicon assay, genotype 1a NS5A Q30E. Format: cell-based, HCV. Particulars: Hepatitis C virus, read-out: 1a Q30E (nM). The gist of the method:
(§1)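 Site-directed mutagenesis → mutant Pi-RLuc replicon RNA → transient transfection, cured-51 Huh-7 cells → 3-fold serial cpd dilutions from DMSO stock, 72 h → RLuc read → EC50, non-linear regression.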

Data set [2] has as its system NS5A chimeric genotype 2a JFH-1 replicon with genotype 2b MD2b-1 strain NS5A gene (M31). The data set can be described thus: HCV genotype 2b NS5A chimeric replicon assay, stable (s). As to conditions: Hepatitis C virus, 72 h, read-out: 2b (s) (nM). Format: cell-based. (In general: In antiviral work, replicon cells carry a viral genome segment that copies itself.)
The test system of data set [3] is Y93H in genotype 1a NS5A replicon. The data set can be described thus: Resistance mutant replicon assay, genotype 1a NS5A Y93H. It is filed as cell-based, HCV. As to conditions: Hepatitis C virus, read-out: 1a Y93H (nM). In a few lines:
as §1

Data set [4] deals with stable HCV 1b RLuc replicon cells (genotype 1b Con1 replicon). Kind of data set: HCV genotype 1b RLuc replicon reporter assay. It is filed as cell-based. Particulars: Hepatitis C virus; stable genotype 1b Con1 RLuc replicon cells, 72 hours. The gist of the method: (§2)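 Stable 1b Con1 RLuc replicon cells, or Huh-Lunet cells transiently transfected with chimeric replicons (Con1 backbone carrying 3a S52 or 4a ED43 NS5A; JFH-1 backbone carrying 2b MD2b-1 NS5A, M31), treated with 3-fold dilutions for 72 h. Renilla luciferase read after lysis; EC50 by non-linear regression.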

The test system of data set [5] is L31V/Y93H in genotype 1b NS5A replicon. Kind of data set: Resistance mutant replicon assay, genotype 1b NS5A L31V/Y93H. Format: cell-based, HCV. As to conditions: Hepatitis C virus, read-out: 1b L31V/Y93H (nM). The gist of the method:
as §1

Data set [6] in a line: IV and PO single dose pharmacokinetic studies in SD rats. Format: in vivo. Particulars: Sprague-Dawley, rat, plasma, male SD rats, IV infusion 1 mg/kg, oral gavage 2 mg/kg, read-out: Rat % F. The gist of the method: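 Fasted male Sprague-Dawley rats (n=3/group) dosed IV by 30-min jugular infusion at 1 mg/kg or by oral gavage at 2 mg/kg, in ethanol/PEG 400 vehicles at pH 2.0–2.2. Serial plasma to 24 h quantified by LC/MS/MS (SRM); non-compartmental analysis, linear-trapezoidal AUC, %F as oral vs IV AUC.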

The test system of data set [7] is Y93N in genotype 1a NS5A replicon. The data set can be described thus: Resistance mutant replicon assay, genotype 1a NS5A Y93N. Format: cell-based, HCV. As to conditions: Hepatitis C virus, read-out: 1a Y93N (nM). In a few lines: as §1
For data set [8], the system named is Y93H in genotype 3a NS5A replicon. The data set can be described thus: Resistance mutant replicon assay, genotype 3a NS5A Y93H. It is filed as cell-based, HCV. Particulars: Hepatitis C virus, read-out: 3a Y93H (nM). The gist of the method:
as §1

The test system of data set [9] is NS5A chimeric genotype 1b Con1 replicon with genotype 3a S52 strain NS5A gene. Kind of data set: HCV genotype 3a NS5A chimeric replicon assay. It is filed as cell-based. Particulars: Hepatitis C virus, 72 h, read-out: 3a (nM). The gist of the method:
as §2

Data set [10] concerns NS5A chimeric genotype 2a JFH-1 replicon with genotype 2b MD2b-1 strain NS5A gene (M31). Kind of data set: HCV genotype 2b NS5A chimeric replicon assay, transient (t). Format: cell-based. As to conditions: Hepatitis C virus, 72 h, read-out: 2b (t) (nM). The gist of the method:
as §2

In the case of `COC(=O)N[C@H](C(=O)N1[C@@H](C)CC[C@H]1c1ncc(-c2ccc3c(c2)COc2cc4c(ccc5nc([C@@H]6CC[C@H](C)N6C(=O)[C@@H](NC(=O)OC)C6C[C@@H](C)O[C@H](C)C6)[nH]c54)cc2-3)[nH]1)C1C[C@@H](C)O[C@H](C)C1` (stereo partly drawn) [Example AU, Methyl {(1S)-1-[(2R,6R)-2,6-dimethyltetrahydro-2H-pyran-4-yl]-2-[(2S,5S)-2-(5-{2-[(2S,5S)-1-{(2S)-2-[(2R,6R)-2,6-dimethyltetrahydro-2H-pyran-4-yl]-2-[(methoxycarbonyl)amino]acetyl}-5-methylpyrrolidin-2-yl]-1,11-dihydroisochromeno[4′,3′:6,7]naphtho[1,2-d]imidazol-9-yl}-1H-imidazol-2-yl)-5-methylpyrrolidin-1-yl]-2-oxoethyl}carbamate], the EC50 in data set [1] came to 0.042 nM; in [2] it was 0.023 nM; in data set [3], 0.026 nM; in data set [4], 0.039 nM; in data set [5], 0.059 nM; in data set [7] it was 0.089 nM. Moreover, the results for the EC50 in data set [8], in [9] and in [10] were 0.13 nM, 0.029 nM and 0.017 nM, respectively. Besides, the bioavailability in data set [6] was found to be 16.4%.

On to `COC(=O)N[C@H](C(=O)N1[C@@H](C)CC[C@H]1c1nc2ccc3cc4c(cc3c2[nH]1)OCc1cc(-c2cnc([C@@H]3CC[C@H](C)N3C(=O)[C@@H](NC(=O)OC)C3C[C@@H](C)O[C@H](C)C3)[nH]2)ccc1-4)C(C)C` (stereo partly shown) [Example AS], for which the EC50 is 0.115 nM in data set [1]; 0.064 nM in data set [2]; 0.148 nM in data set [3]; 0.045 nM in data set [4]; 2.03 nM in [5]; 0.325 nM in [7]. The EC50 in [8] is 0.732 nM; in [9], 0.051 nM; in [10] it was 0.026 nM. In data set [6], the bioavailability turned out to be 17.4%.

In the case of `COC(=O)N[C@H](C(=O)N1[C@@H](C)CC[C@H]1c1ncc(-c2ccc3c(c2)COc2cc4c(ccc5nc([C@@H]6CC[C@H](C)N6C(=O)[C@@H](NC(=O)OC)C6CC(C)O[C@H](C)C6)[nH]c54)cc2-3)[nH]1)C(C)C` (stereo in doubt) [Example AQ, Methyl {(2S)-1-[(2S,5S)-2-(5-{2-[(2S,5S)-1-{(2S)-2-[(2R,6R)-2,6-dimethyltetrahydro-2H-pyran-4-yl]-2-[(methoxycarbonyl)amino]acetyl}-5-methylpyrrolidin-2-yl]-1,11-dihydroisochromeno[4′,3′:6,7]naphtho[1,2-d]imidazol-9-yl}-1H-imidazol-2-yl)-5-methylpyrrolidin-1-yl]-3-methyl-1-oxobutan-2-yl}carbamate], the EC50 is 0.074 nM in [1]; 0.032 nM in data set [2]; 0.206 nM in [3]; 0.029 nM in data set [4]; 0.908 nM in [5]; 0.337 nM in [7]. Also, the EC50 in [8] came out at 0.703 nM; in data set [9], 0.017 nM; in data set [10], 0.016 nM. Moreover, the bioavailability in [6] stood at 22.9%.

For the molecule `CC[C@H](C)[C@H](NC(=O)OC)C(=O)N1[C@@H](C)CC[C@H]1c1ncc(-c2ccc3c(c2)COc2cc4c(ccc5nc([C@@H]6CC[C@H](C)N6C(=O)[C@@H](NC(=O)OC)C6C[C@@H](C)O[C@H](C)C6)[nH]c54)cc2-3)[nH]1` (stereo partly drawn) [Example AA, Methyl {(2S,3S)-1-[(2S,5S)-2-(5-{2-[(2S,5S)-1-{(2S)-2-[(2R,6R)-2,6-dimethyltetrahydro-2H-pyran-4-yl]-2-[(methoxycarbonyl)amino]acetyl}-5-methylpyrrolidin-2-yl]-1,11-dihydroisochromeno[4′,3′:6,7]naphtho[1,2-d]imidazol-9-yl}-1H-imidazol-2-yl)-5-methylpyrrolidin-1-yl]-3-methyl-1-oxopentan-2-yl}carbamate], the EC50 in data set [1] stood at 0.145 nM; in data set [2] it was 0.029 nM; in data set [3] it was 0.322 nM; in data set [4] it was 0.017 nM; in data set [5], 0.498 nM; in data set [7] it was 0.57 nM. Moreover, the EC50 in [8] is 0.544 nM; in data set [9] it was 0.014 nM; in [10] it was 0.014 nM. In data set [6], the bioavailability was 28.1%.

For `COC(=O)N[C@H](C(=O)N1[C@@H](C)CC[C@H]1c1ncc(-c2ccc3c(c2)COc2cc4c(ccc5nc([C@@H]6CC[C@H](C)N6C(=O)[C@@H](NC(=O)OC)[C@H]6C[C@@H](C)O[C@@H](C)C6)[nH]c54)cc2-3)[nH]1)C(C)C` [Example AM, Methyl {(2S)-1-[(2S,5S)-2-(5-{2-[(2S,5S)-1-{(2S)-2-[(2R,6S)-2,6-dimethyltetrahydro-2H-pyran-4-yl]-2-[(methoxycarbonyl)amino]acetyl}-5-methylpyrrolidin-2-yl]-1,11-dihydroisochromeno[4′,3′:6,7]naphtho[1,2-d]imidazol-9-yl}-1H-imidazol-2-yl)-5-methylpyrrolidin-1-yl]-3-methyl-1-oxobutan-2-yl}carbamate], the EC50 in data set [1] was determined as 1.21 nM; in [2], 0.023 nM; in [4] it was 0.014 nM; in [5] it was 11.6 nM; in [7] it was 4.65 nM; in [8], 8.06 nM. The EC50 came out at 0.011 nM in [9] and 0.008 nM in data set [10]. For the same molecule, in [6], the bioavailability was 21.9%.
